Source: US11535606B2, “Substituted quinoline-8-carbonitrile derivatives with androgen receptor degradation activity and uses thereof” (ACCUTAR BIOTECHNOLOGY INC., priority 2019, dated 2022)
Changes are numbered by the printed parent chain.

How the values were obtained:
androgen receptor (AR) [1] = molecular target: T1, androgen receptor (AR) (Homo sapiens, UniProt P10275, T878A); experiment: AR degradation activity in LNCAP cells (Western blot); format: cell-based; details: 24 hours after administration, DC50 = concentration needed for 50% target protein degradation
T1 construct: endogenous in cells; host or cells: LNCAP
T1 sequence (P10275 1-920 T878A): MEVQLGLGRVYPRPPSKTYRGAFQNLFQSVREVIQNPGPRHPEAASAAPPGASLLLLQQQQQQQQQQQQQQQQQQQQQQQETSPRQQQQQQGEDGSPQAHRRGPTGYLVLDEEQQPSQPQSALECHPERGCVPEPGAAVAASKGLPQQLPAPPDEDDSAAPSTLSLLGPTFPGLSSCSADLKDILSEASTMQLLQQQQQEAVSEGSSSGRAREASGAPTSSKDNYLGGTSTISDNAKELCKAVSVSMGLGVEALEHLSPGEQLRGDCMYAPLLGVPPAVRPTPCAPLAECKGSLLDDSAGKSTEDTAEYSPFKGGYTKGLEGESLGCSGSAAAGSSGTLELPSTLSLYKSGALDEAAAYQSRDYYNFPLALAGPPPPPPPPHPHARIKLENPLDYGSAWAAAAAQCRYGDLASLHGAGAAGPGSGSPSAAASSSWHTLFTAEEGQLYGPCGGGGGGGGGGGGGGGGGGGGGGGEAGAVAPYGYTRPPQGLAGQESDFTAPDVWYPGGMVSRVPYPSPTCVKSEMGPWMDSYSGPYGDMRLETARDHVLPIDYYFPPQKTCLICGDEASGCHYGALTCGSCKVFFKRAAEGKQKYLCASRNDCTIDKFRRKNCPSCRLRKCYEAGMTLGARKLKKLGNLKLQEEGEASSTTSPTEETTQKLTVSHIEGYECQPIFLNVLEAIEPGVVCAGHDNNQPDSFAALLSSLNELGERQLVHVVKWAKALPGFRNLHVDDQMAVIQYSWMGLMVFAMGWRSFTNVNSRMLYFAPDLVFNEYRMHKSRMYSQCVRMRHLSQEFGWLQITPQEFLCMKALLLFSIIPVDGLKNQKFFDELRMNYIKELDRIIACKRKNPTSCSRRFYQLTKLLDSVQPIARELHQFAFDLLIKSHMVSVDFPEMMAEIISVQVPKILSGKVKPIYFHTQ
Method: (§1) LNCAP, VCAP and 22Rv1 cells were plated in 24-well plates at 1.5×10E5 cells/well in the RPMI growth medium containing 10% FBS and 1% Penicillin Streptomycin, and then incubated at 37° C. overnight. The following day, the test compound was administered to the cells by using 1000× compound stock solution prepared in DMSO at various concentrations. After administration of the compound, the cells were then incubated at 37° C. for 24 hours. Upon completion, the cells were washed with PBS and protein was collected in Laemmli sample buffer (1×; VWR International). Proteins in cell lysate were separated by SDS-PAGE and transferred to Odyssey nitrocellulose membranes (Licor) with Iblot® dry blotting transfer system (ThermoFisher). Nonspecific binding was blocked by incubating membranes with Intercept Blocking Buffer (Licor) for 1 hour at room temperature with gentle shaking. The membranes were then incubated overnight at 4° C. with Primary antibodies rabbit anti-AR (1:1,000, Cell Signaling, 5153) and mouse anti-GAPDH (1:5,000, Santa Cruz Biotechnology, sc-47724) diluted in Intercept Blocking Buffer containing 0.1% Tween 20. After washing 3 times with TBS-T, the membranes were incubated with IRDye® 800CW goat anti-mouse IgG (1:20,000, Licor) or IRDye® 800CW goat anti-rabbit IgG (1:20,000, Licor) for 1 hour. After TBS-T washes, membranes were rinsed in TBS and scanned on Odyssey® CLx Imaging System (Licor). The bands were quantified using Image Studio™ Software (Licor).
(§2) Table 4 summarizes the androgen receptor (AR) degradative activity of exemplary compounds in LNCAP, VCAP and 22Rv1 cell lines 24 hours after administration. DC50: compound concentration needed for 50% target protein degradation.

androgen receptor (AR) [2] = molecular target: T2, androgen receptor (AR) (Homo sapiens, UniProt P10275); experiment: AR degradation activity in VCAP cells (Western blot); format: cell-based; details: 24 hours after administration, DC50 = concentration needed for 50% target protein degradation
T2 construct: endogenous in cells; host or cells: VCAP
T2 sequence (P10275 1-920): T1 sequence (P10275 1-920 T878A) with A878T
Method: as §1, §2

SMILES | DC50 (androgen receptor (AR) [1]) [nM] | DC50 (androgen receptor (AR) [2]) [nM]
N#Cc1ccc(O[C@H]2CC[C@H](NC(=O)c3ccc(N4CCC(CN5CCN(c6ccc7c(c6)C(=O)N(C6CCC(=O)NC6=O)C7=O)CC5)CC4)nc3)CC2)c2cccnc12 (relative stereo) [Compound 3-13, trans-N-(4-((8-cyanoquinolin-5-yl)oxy)cyclohexyl)-6-(4-((4-(2-(2,6-dioxopiperidin-3-yl)-1,3-dioxoisoindolin-5-yl)piperazin-1-yl)methyl)piperidin-1-yl)nicotinamide] | < 10 | < 10
N#Cc1ccc(O[C@H]2CC[C@H](NC(=O)c3ccc(N4CCC(CCN5CCN(c6ccc7c(c6)C(=O)N(C6CCC(=O)NC6=O)C7=O)CC5)CC4)cc3)CC2)c2cccnc12 (relative stereo) [Compound 3-22, trans-N-(4-((8-cyanoquinolin-5-yl)oxy)cyclohexyl)-4-(4-(2-(4-(2-(2,6-dioxopiperidin-3-yl)-1,3-dioxoisoindolin-5-yl)piperazin-1-yl)ethyl)piperidin-1-yl)benzamide] | < 10 | < 10
CN(CC1CCN(c2ccc(C(=O)NC3CCC(Oc4ccc(C#N)c5ncccc45)CC3)cn2)CC1)C1CC(Oc2ccc3c(c2)C(=O)N(C2CCC(=O)NC2=O)C3=O)C1 (centres unmarked) [Compound 3-9] | < 10 | –
CC(C)N(CC1CCN(c2ccc(C(=O)NC3CCC(Oc4ccc(C#N)c5ncccc45)CC3)cn2)CC1)C1CC(Oc2ccc3c(c2)C(=O)N(C2CCC(=O)NC2=O)C3=O)C1 (centres unmarked) [Compound 3-11] | < 10 | –
N#Cc1ccc(O[C@H]2CC[C@H](NC(=O)c3cnc(N4CCC(CN5CCN(c6ccc7c(c6)C(=O)N(C6CCC(=O)NC6=O)C7=O)CC5)CC4)nc3)CC2)c2cccnc12 (stereo partly drawn) [Compound 3-15, trans-N-(4-((8-cyanoquinolin-5-yl)oxy)cyclohexyl)-2-(4-((4-(2-(2,6-dioxopiperidin-3-yl)-1,3-dioxoisoindolin-5-yl)piperazin-1-yl)methyl)piperidin-1-yl)pyrimidine-5-carboxamide] | < 10 | < 10
N#Cc1ccc(O[C@H]2CC[C@H](NC(=O)c3ccc(N4CCC(CN5CCN(c6ccc7c(c6)C(=O)N(C6CCC(=O)NC6=O)C7=O)CC5)CC4)nn3)CC2)c2cccnc12 (stereo partly drawn) [Compound 3-16, trans-N-(4-((8-cyanoquinolin-5-yl)oxy)cyclohexyl)-6-(4-((4-(2-(2,6-dioxopiperidin-3-yl)-1,3-dioxoisoindolin-5-yl)piperazin-1-yl)methyl)piperidin-1-yl)pyridazine-3-carboxamide] | < 10 | < 10
N#Cc1ccc(OC2CCC(NC(=O)c3cnc(N4CCC(CN5CCN(c6ccc7c(c6)C(=O)N(C6CCC(=O)NC6=O)C7=O)CC5)CC4)cn3)CC2)c2cccnc12 (centres unmarked) [Compound 3-17] | < 10 | –
N#Cc1ccc(O[C@H]2CC[C@H](NC(=O)c3ccc(N4CCC(CN5CCN(c6ccc7c(c6)C(=O)N(C6CCC(=O)NC6=O)C7=O)CC5)CC4)cc3)CC2)c2cccnc12 (some centres unmarked) [Compound 3-18, N-(4-((8-cyanoquinolin-5-yl)oxy)cyclohexyl)-4-(4-((4-(2-(2,6-dioxopiperidin-3-yl)-1,3-dioxoisoindolin-5-yl)piperazin-1-yl)methyl)piperidin-1-yl)benzamide] | < 10 | < 10
N#Cc1ccc(OC2CCC(NC(=O)c3ccc(N4CCC(CN5CCN(c6ccc7c(c6)C(=O)N(C6CCC(=O)NC6=O)C7=O)CC5)CC4)c(F)c3)CC2)c2cccnc12 (centres unmarked) [Compound 3-19, N-(4-((8-cyanoquinolin-5-yl)oxy)cyclohexyl)-4-(4-((4-(2-(2,6-dioxopiperidin-3-yl)-1,3-dioxoisoindolin-5-yl)piperazin-1-yl)methyl)piperidin-1-yl)-3-fluorobenzamide] | < 10 | < 10
N#Cc1ccc(OC2CCC(NC(=O)c3cnc(N4CCC(CN5CCN(c6ccc7c(c6)CN([C@H]6CCC(=O)NC6=O)C7=O)CC5)CC4)nc3)CC2)c2cccnc12 (some centres unmarked) [Compound 3-30] | < 10 | < 10
N#Cc1ccc(OC2CCC(NC(=O)c3ccc(N4CCC(CN5CCN(c6cc7c(cc6F)C(=O)N(C6CCC(=O)NC6=O)C7=O)CC5)CC4)nc3)CC2)c2cccnc12 (centres unmarked) [Compound 3-35] | < 10 | –
CC(C)N(CC1CCN(c2ccc(C(=O)NC3CCC(Oc4ccc(C#N)c5ncccc45)CC3)nn2)CC1)C1CC(Oc2ccc3c(c2)C(=O)N(C2CCC(=O)NC2=O)C3=O)C1 (centres unmarked) [Compound 3-43] | < 10 | –
N#Cc1ccc(OC2CCC(NC(=O)c3ccc(N4CCC(CN5CCN(c6cc7c(cc6F)C(=O)N(C6CCC(=O)NC6=O)C7=O)CC5)CC4)cc3)CC2)c2cccnc12 (centres unmarked) [Compound 3-49] | > 100 | –
N#Cc1ccc(OC2CCC(NC(=O)c3ccc(N4CCC(CN5CCN(c6cc7c(cc6F)C(=O)N(C6CCC(=O)NC6=O)C7=O)CC5)CC4)c(F)c3)CC2)c2cccnc12 (centres unmarked) [Compound 3-50] | < 10 | –
N#Cc1ccc(OC2CCC(NC(=O)c3cnc(N4CCC(CN5CCN(c6cc7c(cc6F)C(=O)N(C6CCC(=O)NC6=O)C7=O)CC5)CC4)nc3)CC2)c2cccnc12 (centres unmarked) [Compound 3-51] | < 10 | –
N#Cc1ccc(OC2CCC(NC(=O)c3cnc(N4CCC(CN5CCN(c6cc7c(cc6F)C(=O)N(C6CCC(=O)NC6=O)C7=O)CC5)CC4)cn3)CC2)c2cccnc12 (centres unmarked) [Compound 3-52] | < 10 | –
N#Cc1ccc(O[C@H]2CC[C@H](NC(=O)c3cnc(N4CCC(CN5CCN(c6cc7c(cc6F)C(=O)N(C6CCC(=O)NC6=O)C7=O)CC5)CC4)c(F)c3)CC2)c2cccnc12 (some centres unmarked) [Compound 3-53] | < 10 | –
N#Cc1ccc(O[C@H]2CC[C@H](NC(=O)c3cnc(N4CC[C@@H](CN5CCN(c6ccc7c(c6)C(=O)N(C6CCC(=O)NC6=O)C7=O)CC5)C4)nc3)CC2)c2cccnc12 (some centres unmarked) [Compound 3-54] | < 10 | –
N#Cc1ccc(O[C@H]2CC[C@H](NC(=O)c3cnc(N4CC[C@H](CN5CCN(c6ccc7c(c6)C(=O)N(C6CCC(=O)NC6=O)C7=O)CC5)C4)nc3)CC2)c2cccnc12 (some centres unmarked) [Compound 3-55] | < 10 | –
